Test results: BindingDB's records for doi:10.1021/jm00011a006 (University of Minnesota, 1995)

Molecular target: Aldehyde dehydrogenase (Saccharomyces cerevisiae)
Assay: In vitro inhibition against yeast Aldehyde dehydrogenase

IC50 [µM] | SMILES
270 | CCOC(=O)On1nnc2ccccc21 [Carbonic acid benzotriazol-1-yl ester ethyl ester]
56 | CCOC(=O)ON1C(=O)c2ccccc2S1(=O)=O [Carbonic acid ethyl ester 1,1,3-trioxo-1,3-dihydro-1lambda*6*-benzo[d]isothiazol-2-yl ester]
24 | CCOC(=O)ON(C(=O)OCC)S(=O)(=O)c1ccc(Cl)cc1 [ethyl (4-chlorophenyl)sulfonyl[(ethoxycarbonyl)oxy]carbamate]
